Results as given in patent US20160150778A1, “PLASTIC HAVING A BIOCIDAL SURFACE AND METHOD FOR PRODUCING SAID PLASTIC” (JANSEN AG, priority 2013, published 2016).

Key:
[1] = discoloration / decomposition of quat on compounding into polyethylene melt; assay type: physicochemical; set-up: key: ++: heavy discoloration; +: discoloration; 0: weak discoloration; −: hardly any discoloration
Method: Experiments were carried out in which the additives shown in Table 2 were processed into a polyethylene melt in a concentration of 2.5%, 5% and 10% into polyethylene RT Dowlex 2388. The compounding conditions included 12 minutes of mixing at 210° C. Partial decomposition of the quat was observed during this step.
Part of the time, a strong violet coloration and a (“fishy”) smell of amines were observed, in particular with additives containing multiple methyl groups and at high concentrations. The probable decomposition mechanism is a Hofmann decomposition.

[2] = solubility of the oil in solvents; assay type: physicochemical
Method: A 250 mL flask was filled with 37.92 g (52.5 mmol) of PEG (400) ditosylate. Approximately 100 mL of acetone was added, followed by 16.5 g (approximately 21.6 mL or 104.9 mmol) of dimethyloctylamine. […] The oil was soluble in acetone, chloroform and water, but insoluble in ethyl acetate.

[3] = 2.5% additive in polyethylene RT Dowlex 2388, 12 minutes of mixing at 210° C
[4] = 5% additive in polyethylene RT Dowlex 2388, 12 minutes of mixing at 210° C
[5] = 10% additive in polyethylene RT Dowlex 2388, 12 minutes of mixing at 210° C

| Molecule | discoloration [1, 3] | discoloration [1, 4] | discoloration [1, 5] | solubility ([2]; acetone) | solubility ([2]; chloroform) | solubility ([2]; ethyl acetate) | solubility ([2]; water) |
| --- | --- | --- | --- | --- | --- | --- | --- |
| CCCCCCCCCCCCCCCCCC[N+](C)(C)Cc1ccccc1 [additive A] | + | + | + |  |  |  |  |
| CCCCCCCCCCCCCCCCCC[N+](C)(C)C [additive B] | 0 | + | ++ |  |  |  |  |
| CCCCCCCCCCCCCCCCCC[N+](C)(C)CCCCCCCCCCCCCCCCCC [additive C] | 0 | 0 | + |  |  |  |  |
| Br.CCCCCCCCCCCCCCCCCCN(C)CCCCCCCCCCCCCCCCCC [additive D] | − | − | 0 |  |  |  |  |
| Br.CCCCCCCCCCCCCCCCCCN(CCCCCCCCCCCCCCCCCC)CCCCCCCCCCCCCCCCCC [additive E] | − | − | − |  |  |  |  |
| α,ω-bis(dimethyloctylammonium)PEG(400) ditosylate |  |  |  | soluble | soluble | insoluble | soluble |
